Read-outs that look alike come from different tables or passages of the source.
Tests used:
TF-VIIa = biological target: T1, TF-VIIa (Homo sapiens, UniProt P08709); experiment: TF-VIIa Assay; format: biochemical
T1 construct: 2nM recombinant human factor VIIa; purchased American Diagnostica, Greenwich CT; host or cells: soluble TF made in house in E. coli

Human factor Xa = Human factor Xa (Homo sapiens, UniProt P00742)
[1] = read-out: IC50 or % Inhibition TF-VIIa (30 µM); cells given as a plain number (IC50)
[2] = cells given as a plain number (IC50); read-out: IC50 or % Inhibition TF-VIIa (30 µM)
[3] = read-out: IC50 or % Inhibition TF-VIIa (30 µM); cells without % sign: IC50
[4] = cells without % sign: IC50; read-out: IC50 or % Inhibition TF-VIIa (30 µM)

T1 sequence (P08709 213-466 limits assumed): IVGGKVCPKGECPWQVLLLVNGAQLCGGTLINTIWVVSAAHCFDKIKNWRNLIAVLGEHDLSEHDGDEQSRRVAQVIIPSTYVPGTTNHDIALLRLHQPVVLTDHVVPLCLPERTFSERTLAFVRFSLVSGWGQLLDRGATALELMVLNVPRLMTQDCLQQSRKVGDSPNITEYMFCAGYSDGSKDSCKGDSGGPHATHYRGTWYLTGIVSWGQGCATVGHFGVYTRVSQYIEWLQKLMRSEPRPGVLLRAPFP
T1 sequence (P08709 61-212 limits assumed): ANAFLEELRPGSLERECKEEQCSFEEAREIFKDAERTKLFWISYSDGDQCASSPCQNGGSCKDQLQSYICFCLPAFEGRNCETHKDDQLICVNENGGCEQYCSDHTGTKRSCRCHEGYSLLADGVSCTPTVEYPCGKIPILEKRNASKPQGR
T1 sequence (P13726 33-251 partner limits assumed): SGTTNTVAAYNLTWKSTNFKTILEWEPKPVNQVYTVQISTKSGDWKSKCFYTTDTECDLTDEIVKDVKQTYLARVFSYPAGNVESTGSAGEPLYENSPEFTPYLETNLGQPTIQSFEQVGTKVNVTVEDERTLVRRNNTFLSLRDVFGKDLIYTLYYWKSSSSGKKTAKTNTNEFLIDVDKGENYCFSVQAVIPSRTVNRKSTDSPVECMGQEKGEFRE
Sequence of Human factor Xa (P00742 235-488 limits assumed): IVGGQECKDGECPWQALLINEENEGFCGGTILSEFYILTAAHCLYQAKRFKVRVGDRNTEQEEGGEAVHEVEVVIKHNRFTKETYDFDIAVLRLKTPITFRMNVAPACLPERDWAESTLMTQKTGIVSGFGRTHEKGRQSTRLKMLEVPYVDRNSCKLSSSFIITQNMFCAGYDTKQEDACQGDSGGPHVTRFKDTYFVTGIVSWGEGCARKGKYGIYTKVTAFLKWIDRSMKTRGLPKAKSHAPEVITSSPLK
Sequence of Human factor Xa (P00742 41-179 limits assumed): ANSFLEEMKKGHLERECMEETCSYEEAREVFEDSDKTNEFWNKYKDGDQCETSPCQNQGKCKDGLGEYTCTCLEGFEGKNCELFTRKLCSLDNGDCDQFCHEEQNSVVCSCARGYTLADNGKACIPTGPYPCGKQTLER

## N=C(N)c1ccc(CNC(=O)Cn2c(-c3ccsc3)c(Cl)nc(NCCc3cccc(Cl)c3)c2=O)cc1 [1517-19]
TF-VIIa; [1]
  IC50: 900 nM
Human factor Xa
  IC50 or % Inhibition Factor Xa (30 µM): 0%

## N=C(N)c1ccc(CNC(=O)C(Cc2ccccc2)n2c(-c3ccccc3)c(Cl)nc(NCCc3cccc(Cl)c3)c2=O)cc1 (stereo not shown) [1517-20]
TF-VIIa
  IC50 or % Inhibition TF-VIIa (30 µM): 22%
Human factor Xa
  IC50 or % Inhibition Factor Xa (30 µM): 0%

## C[C@H](C(=O)NCc1ccc(C(=N)N)cc1)n1c(-c2ccccc2)c(Cl)nc(NCCc2cccc(Cl)c2)c1=O [1517-23]
TF-VIIa; [1]
  IC50: 2300 nM
Human factor Xa
  IC50 or % Inhibition Factor Xa (30 µM): 0%

## N=C(N)c1ccc(CNC(=O)Cn2c(-c3c(Cl)cccc3Cl)c(Cl)nc(NCCc3cccc(Cl)c3)c2=O)cc1 [1517-24]
TF-VIIa; [1]
  IC50: 1800 nM
Human factor Xa
  IC50 or % Inhibition Factor Xa (30 µM): 0%

## N=C(N)c1ccc(CNC(=O)Cn2c(-c3ccccc3)c(Cl)nc(NC3CCCCC3)c2=O)cc1 [1517-25]
TF-VIIa; [2]
  IC50: 1400 nM
Human factor Xa
  IC50 or % Inhibition Factor Xa (30 µM): 0%

## CCCC(CCC)Nc1nc(Cl)c(-c2ccccc2)n(CC(=O)NCc2ccc(C(=N)N)cc2)c1=O [1517-26]
TF-VIIa; [2]
  IC50: 1800 nM
Human factor Xa
  IC50 or % Inhibition Factor Xa (30 µM): 0%

## CC(C)N(C)c1nc(Cl)c(-c2ccccc2)n(CC(=O)NCc2ccc(C(=N)N)cc2)c1=O [1517-31]
TF-VIIa; [2]
  IC50: 9100 nM
Human factor Xa
  IC50 or % Inhibition Factor Xa (30 µM): 0%

## CCCNc1nc(Cl)c(-c2ccccc2)n(CC(=O)NCc2ccc(C(=N)N)cc2)c1=O [1517-33]
TF-VIIa; [2]
  IC50: 400 nM
Human factor Xa
  IC50 or % Inhibition Factor Xa (30 µM): 0%

## C[Si](C)(C)CNc1nc(Cl)c(-c2ccccc2)n(CC(=O)NCc2ccc(C(=N)N)cc2)c1=O [1517-36]
TF-VIIa; [1]
  IC50: 3000 nM
Human factor Xa
  IC50 or % Inhibition Factor Xa (30 µM): 0%

## N=C(N)c1ccc(CNC(=O)Cn2c(-c3ccccc3)c(Cl)nc(NCC3CC3)c2=O)cc1 [1517-43]
TF-VIIa
  IC50 or % Inhibition TF-VIIa (30 µM): 25%
Human factor Xa
  IC50 or % Inhibition Factor Xa (30 µM): 0%

## CCCCCNc1nc(Cl)c(-c2ccccc2)n(CC(=O)NCc2ccc(C(=N)N)cc2)c1=O [1517-48]
TF-VIIa; [1]
  IC50: 1200 nM
Human factor Xa
  IC50 or % Inhibition Factor Xa (30 µM): 0%

## N=C(N)c1ccc(CNC(=O)Cn2c(-c3cccc(N)c3)c(Cl)nc(NCCN3CCCC3)c2=O)cc1 [1543-03]
TF-VIIa; [3]
  IC50: 640 nM
Human factor Xa
  IC50 or % Inhibition Factor Xa (30 µM): 34%

## CNc1nc(Cl)c(-c2cccc(N)c2)n(CC(=O)NCc2ccc(C(=N)N)cc2)c1=O [1543-05]
TF-VIIa; [4]
  IC50: 60 nM
Human factor Xa
  IC50 or % Inhibition Factor Xa (30 µM): 14%

## N=C(N)c1ccc(CNC(=O)Cn2c(-c3cccc(N)c3)c(Cl)nc(NCCCn3ccnc3)c2=O)cc1 [1543-07]
TF-VIIa; [3]
  IC50: 210 nM
Human factor Xa
  IC50 or % Inhibition Factor Xa (30 µM): 19%

## CN(C)CCNc1nc(Cl)c(-c2cccc(N)c2)n(CC(=O)NCc2ccc(C(=N)N)cc2)c1=O [1543-09]
TF-VIIa; [4]
  IC50: 690 nM
Human factor Xa
  IC50 or % Inhibition Factor Xa (30 µM): 12%

## N=C(N)c1ccc(CNC(=O)Cn2c(-c3cccc(N)c3)c(Cl)nc(NCCCO)c2=O)cc1 [1543-13]
TF-VIIa; [4]
  IC50: 90 nM
Human factor Xa
  IC50 or % Inhibition Factor Xa (30 µM): 12%

## N=C(N)c1ccc(CNC(=O)Cn2c(-c3cccc(N)c3)c(Cl)nc(NCCN3CCCCC3)c2=O)cc1 [1543-15]
TF-VIIa; [3]
  IC50: 950 nM
Human factor Xa
  IC50 or % Inhibition Factor Xa (30 µM): 41%

## CC(CNc1nc(Cl)c(-c2cccc(N)c2)n(CC(=O)NCc2ccc(C(=N)N)cc2)c1=O)N(C)C (stereo not shown) [1543-19]
TF-VIIa; [3]
  IC50: 220 nM
Human factor Xa
  IC50 or % Inhibition Factor Xa (30 µM): 11%

## N=C(N)c1ccc(CNC(=O)Cn2c(-c3cccc(N)c3)c(Cl)nc(NCCCCN3CCCC3)c2=O)cc1 [1543-21]
TF-VIIa; [3]
  IC50: 290 nM
Human factor Xa
  IC50 or % Inhibition Factor Xa (30 µM): 27%

## N=C(N)c1ccc(CNC(=O)Cn2c(-c3cccc(N)c3)c(Cl)nc(NCCCN3CCCC3)c2=O)cc1 [1543-27]
TF-VIIa; [3]
  IC50: 380 nM
Human factor Xa
  IC50 or % Inhibition Factor Xa (30 µM): 27%

## CCNc1nc(Cl)c(-c2cccc(N)c2)n(CC(=O)NCc2ccc(C(=N)N)cc2F)c1=O [1543-31]
TF-VIIa; [3]
  IC50: 40 nM
Human factor Xa
  IC50 or % Inhibition Factor Xa (30 µM): 8%

## N=C(N)c1ccc(CNC(=O)Cn2c(-c3cccc(N)c3)c(Cl)nc(NC3CC3)c2=O)c(F)c1 [1543-33]
TF-VIIa; [3]
  IC50: 30 nM
Human factor Xa
  IC50 or % Inhibition Factor Xa (30 µM): 14%

## N=C(N)c1ccc(CNC(=O)Cn2c(-c3cccc(N)c3)c(Cl)nc(NC3CCCC3)c2=O)c(F)c1 [1543-34]
TF-VIIa; [3]
  IC50: 80 nM
Human factor Xa
  IC50 or % Inhibition Factor Xa (30 µM): 20%

## CCCNc1nc(Cl)c(-c2cccc(N)c2)n(CC(=O)NCc2ccc(C(=N)N)cc2F)c1=O [1543-35]
TF-VIIa; [3]
  IC50: 70 nM
Human factor Xa
  IC50 or % Inhibition Factor Xa (30 µM): 8%

## CCCCNc1nc(Cl)c(-c2cccc(N)c2)n(CC(=O)NCc2ccc(C(=N)N)cc2F)c1=O [1543-36]
TF-VIIa; [3]
  IC50: 80 nM
Human factor Xa
  IC50 or % Inhibition Factor Xa (30 µM): 15%

## CC(C)CNc1nc(Cl)c(-c2cccc(N)c2)n(CC(=O)NCc2ccc(C(=N)N)cc2F)c1=O [1543-38]
TF-VIIa; [3]
  IC50: 90 nM
Human factor Xa
  IC50 or % Inhibition Factor Xa (30 µM): 14%

## CC(C)Nc1nc(Cl)c(-c2cccc(N)c2)n(CC(=O)NCc2ccc(C(=N)N)cc2F)c1=O [1543-40]
TF-VIIa; [3]
  IC50: 40 nM
Human factor Xa
  IC50 or % Inhibition Factor Xa (30 µM): 10%

## N=C(N)c1ccc(CNC(=O)Cn2c(Cc3ccccc3)c(Cl)nc(NCCc3ccccc3)c2=O)cc1 [Example 20]
TF-VIIa
  IC50 or % Inhibition TF-VIIa (30 µM): 41%@30
Human factor Xa
  IC50 or % Inhibition Factor Xa (30 µM): 6%@30

## N=C(N)NCC#CCNC(=O)Cn1c(-c2ccccc2)cnc(NCCc2ccccc2)c1=O [Example 36]
TF-VIIa
  IC50 or % Inhibition TF-VIIa (30 µM): 5%
Human factor Xa
  IC50 or % Inhibition Factor Xa (30 µM): 0%

## N=C(N)NC/C=C\CNC(=O)Cn1c(-c2ccccc2)cnc(NCCc2ccccc2)c1=O [Example 37]
TF-VIIa; [1]
  IC50: 1800 nM
Human factor Xa
  IC50 or % Inhibition Factor Xa (30 µM): 0%

## Nc1n[nH]c2ccc(CNC(=O)Cn3c(-c4ccccc4)cnc(NCCc4ccccc4)c3=O)cc12 [Example 38]
TF-VIIa; [1]
  IC50: 900 nM
Human factor Xa
  IC50 or % Inhibition Factor Xa (30 µM): 22%

## Nc1n[nH]c2cc(CNC(=O)Cn3c(-c4ccccc4)cnc(NCCc4ccccc4)c3=O)ccc12 [Example 39]
TF-VIIa; [1]
  IC50: 1700 nM
Human factor Xa
  IC50 or % Inhibition Factor Xa (30 µM): 0%

## N=C(N)c1ccc(CNC(=O)Cn2c(-c3cccc(N)c3)c(Cl)nc(NC3CCC3)c2=O)cc1F [Example 40]
TF-VIIa; [2]
  IC50: 60 nM
Human factor Xa
  IC50 or % Inhibition Factor Xa (30 µM): 0%

## CC(C)Nc1nc(Cl)c(-c2cccc(N)c2)n(CC(=O)NCc2ccc(C(=N)N)c(F)c2)c1=O [Example 42]
TF-VIIa; [1]
  IC50: 500 nM
Human factor Xa
  IC50 or % Inhibition Factor Xa (30 µM): 0%

## CC(C)Nc1ncc(-c2cccc(N)c2)n(CC(=O)NCc2ccc(C(=N)N)c(F)c2)c1=O [Example 43]
TF-VIIa; [1]
  IC50: 250 nM
Human factor Xa
  IC50 or % Inhibition Factor Xa (30 µM): 0%

## CC(C)Nc1nc(Cl)c(-c2cccc([N+](=O)[O-])c2)n(CC(=O)NCc2ccc(C(N)=NO)cc2)c1=O [Example 61]
TF-VIIa
  IC50 or % Inhibition TF-VIIa (30 µM): 1%
Human factor Xa
  IC50 or % Inhibition Factor Xa (30 µM): 0%

## CC(C)Nc1nc(Cl)c(-c2cccc(N)c2)n(CC(=O)NCCc2ccc(C(=N)N)cc2)c1=O [Example 62]
TF-VIIa; [1]
  IC50: 5600 nM
Human factor Xa
  IC50 or % Inhibition Factor Xa (30 µM): 10%

## COC(=O)c1cccc(-c2c(Cl)nc(NC(C)C)c(=O)n2CC(=O)NCc2ccc(C(=N)N)cc2)c1 [Example 64]
TF-VIIa; [2]
  IC50: 780 nM
Human factor Xa
  IC50 or % Inhibition Factor Xa (30 µM): 19%

## CC(C)Nc1nc(Cl)c(-c2cccc(C(=O)O)c2)n(CC(=O)NCc2ccc(C(=N)N)cc2)c1=O [Example 65]
TF-VIIa; [2]
  IC50: 360 nM
Human factor Xa
  IC50 or % Inhibition Factor Xa (30 µM): 12%

## N=C(N)c1ccc(CNC(=O)Cn2c(-c3ccccc3O)c(Cl)nc(NC3CCC3)c2=O)cc1 [Example 66]
TF-VIIa; [2]
  IC50: 340 nM
Human factor Xa
  IC50 or % Inhibition Factor Xa (30 µM): 0%

## CC(=O)Nc1cccc(-c2c(Cl)nc(NC(C)C)c(=O)n2CC(=O)NCCc2ccc(C(=N)N)cc2)c1 [Example 68]
TF-VIIa
  IC50 or % Inhibition TF-VIIa (30 µM): 32%
Human factor Xa
  IC50 or % Inhibition Factor Xa (30 µM): 6%

Reference: patent EP1202975B1, “SUBSTITUTED POLYCYCLIC ARYL AND HETEROARYL PYRAZINONES USEFUL FOR SELECTIVE INHIBITION OF THE COAGULATION CASCADE” (Pharmacia Corporation, priority 1999, dated 2000)
